Columns and labels:
Assay type in all cases: cell-based, ICR mice
[1] = system: cells of the organ of Corti; test: TUNEL assay of apoptotic DNA fragmentation in cochlear explants; details: for apoptotic DNA fragmentation / cell death induced by antibiotic: KM, AK, or GM in mouse cochlea, no BC
Method: (§1) Three-day-old ICR (Institute for Cancer Research) mice were purchased from Hyochang Science (Daegu, South Korea) for […]. Dissected cochleae were cultured in high-glucose Dulbecco's Modified Eagle's Medium (DMEM; Hyclone, Logan, UT, USA) containing 10% fetal bovine serum (Hyclone) and ampicillin (10 μg/mL; Life Technologies, Carlsbad, CA, USA) at 37° C. in a humidified atmosphere in the presence of 5% CO2. After 16 hours of culture, cochleae were first treated with 0.1 μM or 1 μM BC for 1 hour, followed by addition of one of three aminoglycoside antibiotics (1.2 mM KM, 3 mM AK, or 100 μM GM) to the culture medium. BC concentrations were optimized for each aminoglycoside (0.1 μM for KM, 1 μM for AK and GM).
To detect DNA fragmentation leading to cell death, a TUNEL assay kit (Promega, Madison, WI) was used according to the manufacturer's protocol. Specimens were fixed with 4% paraformaldehyde in PBS for 15 minutes at room temperature (RT) and treated with 0.1% PBS-Tx in 0.1% sodium citrate for 30 minutes at 37° C. Fragmented DNA from cells was stained using TUNEL working solution at 37° C. for 30 minutes. F-actin was labeled with Alexa Fluor 555-conjugated phalloidin in PBS-Tx for 3 hours at room temperature (RT) in the dark and visualized using a Zeiss Axio Imager A2 fluorescence microscope.

[2] = system: IHCs and OHCs (cochlear hair cells); test: Quantification of surviving hair cells with V-shaped stereocilia in cochlear explants; details: for IHC survival / cytotoxicity to IHC: 3 mM AK, 1.2 mM KM, 100 μM GM, no BC
Method: as §1
(§2) To evaluate the morphology of inner hair cells (IHCs) and outer hair cells (OHCs) of the organ of Corti, the specimens were cultured for 48 hours and fixed with 4% paraformaldehyde (PFA, pH 7.4) in PBS for 15 minutes. After washing three times with PBS, a stereociliary bundle of explants was stained with Alexa Fluor 488-or 555-conjugated phalloidin (1:1,000; Invitrogen-Molecular Probes, Eugene, OR) in PBS for 1 hour at room temperature (RT). Specimens were mounted on glass slides using Fluoromount (Sigma-Aldrich, St. Louis, MO) and visualized using an Axio Imager A2 fluorescence microscope (Carl Zeiss, Oberkochen, Germany).
[Example 5] Quantification of hair cells and statistical analysis For quantitative analysis of hair cell damage, IHCs and OHCs with intact v-shaped […] were individually counted along a 200 μm length of basilar membrane in the apical (30%), middle (50%), and basal (70%) regions of each cochlear probe. All experiments were performed independently at least three times.

[3] = system: inner hair cells (IHCs) and outer hair cells (OHCs) of the organ of Corti; test: Phalloidin staining of stereocilia / hair cell morphology in organotypic cochlear explants; details: for hair cell morphology / damage after antibiotic treatment / relative severity of damage, OHC versus IHC: cochlear explants, no BC; for hair cell morphology / damage after antibiotic treatment: 1.2 mM KM, 3 mM AK or 100 μM GM; for relative severity of damage, OHC versus IHC: 1.2 mM KM or 100 μM GM
Method: as §1, §2

[4] = system: cleaved caspase-3 in organ of Corti; test: Immunohistochemistry for cleaved (active) caspase-3 in cochlear explants; details: for level of cleaved caspase-3 after antibiotic treatment: KM, AK, or GM versus untreated controls, no BC
Method: as §1
Immunohistochemistry and TUNEL assay for active caspase-3 were used to determine whether cell death in the organ of Corti occurred by apoptosis. Specimens were fixed with 4% PFA, kept permeabilized with 0.1% Triton X-100 in PBS (PBS-Tx) for 30 minutes at room temperature (RT), blocked with 5% normal goat serum for 1 hour at room temperature (RT), and cultured overnight with anti-caspase-3 antibody (1:1,000; Cell Signaling Technology, Bevery, MA) diluted in blocking solution.

[5] = system: mitochondrial membrane potential of cochlear hair cells; test: JC-1 assay of mitochondrial membrane potential in cochlear explants; details: for red/green fluorescence ratio (mitochondrial membrane potential) after antibiotic treatment: KM, AK, or GM only
Method: as §1
The cationic fluorescent dye MitoProbe™ JC-1 (Invitrogen-Molecular Probes) was used to measure the mitochondrial membrane potential. After 30 hours of culture, the specimens were washed with PBS and stained with JC-1 (2 μM) for 2 hours at 37° C. in the presence of 5% CO2 in a darkroom. The sensitivity of the JC-1 assay was verified by adding 50 μM carbonyl [COMPOUND LEFT OUT] 3-chlorophenylhydrazone (CCCP) to untreated specimens before JC-1 staining, and then the specimens were cultured at 37° C. in the presence of 5% CO2 for 5 minutes for activation of CCCP. JC-1 fluorescence was split into red and green, and then the segmented images were converted to grayscale, followed by evaluation using ImageJ software (http://imageJ.nih.gov/ij/).

[6] = system: mitochondrial reactive oxygen species (ROS) in cochlear hair cells; test: MitoSOX Red assay of mitochondrial ROS in cochlear explants
Method: as §1
To analyze AK or KM-induced mitochondrial oxidative stress, cochlear explants were examined by MitoSOX Red assay and JC-1 assay. Levels of mitochondrial reactive oxygen species (ROS) were detected by staining with 5 μM MitoSOX Red (Invitrogen-Molecular Probes) for 5 minutes in a humidified atmosphere at 37° C. in the presence of 5% CO2. The specimen was washed with PBS and visualized using a Zeiss Axio Imager A2 fluorescence microscope.

reduction of cleaved caspase-3 ([4]; BC pre-treatment before antibiotics (KM, AK, GM)) | Compound | apoptotic DNA fragmentation / cell death induced by antibiotic [1] | IHC survival / cytotoxicity to IHC [2] | hair cell morphology / damage after antibiotic treatment [3] | level of cleaved caspase-3 after antibiotic treatment [4] | red/green fluorescence ratio (mitochondrial membrane potential) after antibiotic treatment ([5]; JC-1) | decrease of MitoSOX Red fluorescence intensity (mitochondrial ROS) ([6]; BC pretreatment, then KM, AK or GM) | statistical significance of reduced integrated density of red fluorescence ([6]; BC treatment group versus AK, KM, and GM groups) | reduction of apoptotic DNA fragmentation (TUNEL labeling) ([1]; BC pretreatment compared with KM, AK, or GM treatment) | reduction of antibiotic-induced hair cell damage (surviving hair cells) ([2]; BC pretreatment (0.1 μM for KM, 1 μM for AK and GM), IHC and OHC, apical, middle and basal turns) | cytotoxicity of BC to IHC and OHC ([2]; BC, cochlear explants) | protection against stereocilia degeneration and hair cell loss ([3]; 0.1 or 1 μM BC for 1 hour before antibiotic (KM, AK, or GM), apical, middle, basal regions) | red/green fluorescence ratio (mitochondrial membrane potential) with BC ([5]; BC pretreatment, then KM, AK or GM, JC-1, n=3 per group, *P<0.05 and **P<0.01) | statistical significance of protective effect on mitochondrial membrane potential ([5]; BC pretreatment, then KM, AK or GM, n=3 per group, *P<0.05 and **P<0.01) | relative severity of damage, OHC versus IHC [3]
 | NCC[C@H](O)C(=O)N[C@@H]1C[C@H](N)[C@@H](O[C@H]2O[C@H](CN)[C@@H](O)[C@H](O)[C@H]2O)[C@H](O)[C@H]1O[C@H]1O[C@H](CO)[C@@H](O)[C@H](N)[C@H]1O [AK, amikacin] | resulted in cell death | virtually destroyed | most of their cilia disintegrated and lost, making them unrecognizable | significantly increased levels of cleaved caspase-3 compared to untreated controls | significant decrease in the red/green ratio along with a loss of red signal |  |  |  |  |  |  |  |  | 
reduced cleaved caspase-3 | COc1ccc2cc3[n+](cc2c1OC)CCc1cc2c(cc1-3)OCO2 [BC, berberine chloride] |  |  |  |  |  | significant decrease in fluorescence intensity | statistically significant compared to the AK, KM, and GM groups | significant reduction by BC pretreatment to near control levels | antibiotic-induced damage was reduced to near-normal levels | no detrimental effects on IHC or OHC | alleviated stereocilia degeneration and hair cell loss in all cochlear regions | red/green fluorescence ratio was found to increase | statistically significant | 
 | NC[C@H]1O[C@H](O[C@H]2[C@H](O)[C@@H](O[C@H]3O[C@H](CO)[C@@H](O)[C@H](N)[C@H]3O)[C@H](N)C[C@@H]2N)[C@H](O)[C@@H](O)[C@@H]1O [KM, kanamycin] | resulted in cell death | more resistant | not only altered the ciliary morphology of hair cells but also disrupted cell arrangement, with induction of cell loss in a complex manner | significantly increased levels of cleaved caspase-3 compared to untreated controls | significant decrease in the red/green ratio along with a loss of red signal |  |  |  |  |  |  |  |  | more severe in OHC than in IHC
 | gentamicin [GM] | resulted in cell death | more resistant |  | significantly increased levels of cleaved caspase-3 compared to untreated controls | significant decrease in the red/green ratio along with a loss of red signal |  |  |  |  |  |  |  |  | caused more severe damage to OHCs than IHCs, with loss of hair cells
